The values that follow come from patent publication US9845313B2, “Cycloalkane derivatives” (Daiichi Sankyo Company, Limited, priority 2012, dated 2017).

The target in assay [1] is hNav1.7 (Homo sapiens (Human), UniProt Q15858). In words: Electrophysiological evaluation, automated patch clamp IonWorks Quattro, hNav 1.7/β1/β2 HEK293A cells. The class given is cell-based. Conditions: response caused by the second depolarization pulse (pre-pulse potential set to V1/2); HEK293A hNav 1.7/β1/β2 cells; Population Patch Clamp. (In general: In patch-clamp work, channel activity is measured electrically.)
hNav1.7, sequence (Q15858 whole entry): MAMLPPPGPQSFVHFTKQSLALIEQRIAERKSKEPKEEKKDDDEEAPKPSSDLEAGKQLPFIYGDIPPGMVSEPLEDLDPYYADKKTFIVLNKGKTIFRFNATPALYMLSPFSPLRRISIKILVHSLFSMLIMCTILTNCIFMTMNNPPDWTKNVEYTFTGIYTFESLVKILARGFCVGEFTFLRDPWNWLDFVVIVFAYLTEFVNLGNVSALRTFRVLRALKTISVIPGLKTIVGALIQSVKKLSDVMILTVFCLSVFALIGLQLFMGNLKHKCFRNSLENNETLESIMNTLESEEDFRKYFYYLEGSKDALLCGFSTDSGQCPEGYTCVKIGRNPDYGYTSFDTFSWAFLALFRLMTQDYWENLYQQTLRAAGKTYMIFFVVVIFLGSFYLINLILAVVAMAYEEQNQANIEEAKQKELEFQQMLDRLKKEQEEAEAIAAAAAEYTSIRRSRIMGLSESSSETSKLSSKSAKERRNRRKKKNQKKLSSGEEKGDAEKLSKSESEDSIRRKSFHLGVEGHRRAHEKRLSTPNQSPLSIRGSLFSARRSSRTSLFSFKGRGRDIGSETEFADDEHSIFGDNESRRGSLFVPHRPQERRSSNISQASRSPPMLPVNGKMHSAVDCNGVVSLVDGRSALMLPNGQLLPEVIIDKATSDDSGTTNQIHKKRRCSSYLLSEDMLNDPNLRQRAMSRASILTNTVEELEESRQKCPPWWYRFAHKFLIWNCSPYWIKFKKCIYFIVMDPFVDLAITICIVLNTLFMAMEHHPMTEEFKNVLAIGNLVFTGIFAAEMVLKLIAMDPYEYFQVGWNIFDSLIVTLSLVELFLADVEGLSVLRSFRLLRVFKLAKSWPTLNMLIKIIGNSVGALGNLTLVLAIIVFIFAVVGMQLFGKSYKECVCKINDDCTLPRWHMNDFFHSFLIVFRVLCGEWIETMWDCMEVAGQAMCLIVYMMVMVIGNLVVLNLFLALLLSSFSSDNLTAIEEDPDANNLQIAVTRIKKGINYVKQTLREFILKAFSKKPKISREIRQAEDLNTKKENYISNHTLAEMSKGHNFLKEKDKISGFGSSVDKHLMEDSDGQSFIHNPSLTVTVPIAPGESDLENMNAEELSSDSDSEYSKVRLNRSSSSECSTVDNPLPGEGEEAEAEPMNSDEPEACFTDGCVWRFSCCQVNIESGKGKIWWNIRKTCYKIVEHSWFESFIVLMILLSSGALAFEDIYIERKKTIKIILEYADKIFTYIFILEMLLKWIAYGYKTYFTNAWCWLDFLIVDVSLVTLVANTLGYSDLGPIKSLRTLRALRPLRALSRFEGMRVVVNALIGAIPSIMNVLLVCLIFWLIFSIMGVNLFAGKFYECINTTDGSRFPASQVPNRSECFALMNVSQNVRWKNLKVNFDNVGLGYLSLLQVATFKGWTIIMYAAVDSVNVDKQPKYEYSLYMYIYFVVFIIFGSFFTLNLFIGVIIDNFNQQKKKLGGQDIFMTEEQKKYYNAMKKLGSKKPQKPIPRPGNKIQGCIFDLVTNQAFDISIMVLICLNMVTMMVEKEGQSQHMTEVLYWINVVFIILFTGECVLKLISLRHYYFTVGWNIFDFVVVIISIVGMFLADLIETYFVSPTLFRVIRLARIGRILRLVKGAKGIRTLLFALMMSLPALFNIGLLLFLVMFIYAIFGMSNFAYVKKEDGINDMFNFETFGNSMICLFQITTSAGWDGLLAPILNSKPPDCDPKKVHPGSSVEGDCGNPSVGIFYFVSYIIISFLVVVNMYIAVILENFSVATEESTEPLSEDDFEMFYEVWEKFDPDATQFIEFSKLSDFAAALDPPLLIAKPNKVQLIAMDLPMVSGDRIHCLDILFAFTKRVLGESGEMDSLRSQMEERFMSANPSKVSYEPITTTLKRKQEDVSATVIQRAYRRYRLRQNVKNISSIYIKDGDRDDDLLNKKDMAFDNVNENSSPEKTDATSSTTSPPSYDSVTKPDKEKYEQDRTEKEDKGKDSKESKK
hNav1.7, sequence (Q07699 19-218 partner): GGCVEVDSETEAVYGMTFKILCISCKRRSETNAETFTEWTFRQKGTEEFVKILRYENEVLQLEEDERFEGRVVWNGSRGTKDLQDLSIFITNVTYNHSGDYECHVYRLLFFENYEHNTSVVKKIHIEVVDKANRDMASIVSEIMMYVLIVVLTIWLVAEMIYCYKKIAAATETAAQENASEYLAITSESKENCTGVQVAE
hNav1.7, sequence (O60939 30-215 partner): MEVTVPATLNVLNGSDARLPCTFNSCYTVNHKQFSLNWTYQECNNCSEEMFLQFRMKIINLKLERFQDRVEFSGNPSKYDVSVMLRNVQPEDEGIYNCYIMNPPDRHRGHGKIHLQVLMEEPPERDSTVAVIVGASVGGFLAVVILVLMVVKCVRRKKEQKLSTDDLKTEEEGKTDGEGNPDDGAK

In assay [2] the test system is patients of painful diabetic neuropathy. Conditions: cited from earlier work.

As a reminder, the IC50 is the concentration at which inhibition is half-maximal. As for `O=S(=O)(Nc1ncns1)c1cc(F)c(O[C@@H]2CCCC[C@@H]2c2ccccc2)cc1F` (relative stereo) [Example 3, 2,5-Difluoro-4-{[(1R*,2R*)-2-phenylcyclohexyl]oxy}-N-(1,2,4-thiadiazol-5-yl)benzenesulfonamide], the midpoint of inhibition in assay [1], the IC50, lay at 0.27 µM.

For `CC(C)C[C@H](CN)CC(=O)O` [pregabalin], in assay [2], the “effective therapeutic ratio based on self-evaluation of patients” value is on record as “approximately 50%”.
